Key:
Assay type in all cases: cell-based
Settings in all cases: 24 h incubation, visual reading
[1] = tested on: Streptococcus pneumoniae MDR ATCC 700677; experiment: MIC assay, S. pneumoniae MDR ATCC 700677
Summary of the method: (§1)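 Overnight MHB cultures at 37° C were diluted 40-fold and grown 2-3 hrs to mid-log, then added at 5×10e5 CFU/mL to twofold compound dilutions (8 to 0.003 μg/ml). Plates were incubated 24 h at 37° C and MIC scored by eye.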

[2] = tested on: Staphylococcus aureus MRSA ATCC 43300; experiment: MIC assay, S. aureus MRSA ATCC 43300
Summary of the method: as §1

[3] = tested on: Enterococcus faecium MDR Van A ATCC 51559; experiment: MIC assay, E. faecium MDR Van A ATCC 51559
Summary of the method: as §1

Row | SMILES | Minimum Inhibitory Concentration (MIC) S. pneumoniae ATCC 700677 [1] | Minimum Inhibitory Concentration (MIC) Staph. aureus ATCC43300 [2] | Minimum Inhibitory Concentration (MIC) E. faecium ATCC51559 [3]
1 | CNC(=O)[C@H](CCCCNC(=O)[C@H]1NC(=O)[C@H]2NC(=O)[C@H](NC(=O)[C@@H]3NC(=O)[C@H](CC(N)=O)NC(=O)[C@H](NC(=O)[C@@H](CC(C)C)NC)[C@H](O)c4ccc(c(Cl)c4)Oc4cc3cc(c4O[C@@H]3O[C@H](CO)[C@@H](O)[C@H](O)[C@H]3O)Oc3ccc(cc3Cl)[C@H]2O)c2ccc(O)c(c2)-c2c(O)cc(O)cc21)NC(=O)[C@H](CCCCN)NC(=O)[C@H](CCCCN)NC(=O)[C@H](CCCCNC(=O)CCCOc1ccccc1)NC(=O)CCCOc1ccccc1 [MCC_000604] | xx (xx = 1-4) | xx (xx = 1-4) | x (x = >4)
2 | CNc1ccc(C(=O)N[C@@H](CCCCN)C(=O)N[C@@H](CCCCN)C(=O)N[C@@H](CCCCNC(=O)[C@H]2NC(=O)[C@H]3NC(=O)[C@H](NC(=O)[C@@H]4NC(=O)[C@H](CC(N)=O)NC(=O)[C@H](NC(=O)[C@@H](CC(C)C)NC)[C@H](O)c5ccc(c(Cl)c5)Oc5cc4cc(c5O[C@@H]4O[C@H](CO)[C@@H](O)[C@H](O)[C@H]4O[C@H]4C[C@](C)(N)[C@H](O)[C@H](C)O4)Oc4ccc(cc4Cl)[C@H]3O)c3ccc(O)c(c3)-c3c(O)cc(O)cc32)C(N)=O)cc1 [MCC_004822] | xx (xx = 1-4) | xxx (xxx = 0.1-<1) | x (x = >4)
3 | CCCCCCCCCCC(=O)N[C@@H](CCCCN)C(=O)NCCCNC(=O)[C@H]1NC(=O)[C@H]2NC(=O)[C@H](NC(=O)[C@@H]3NC(=O)[C@H](CC(N)=O)NC(=O)[C@H](NC(=O)[C@@H](CC(C)C)NC)[C@H](O)c4ccc(c(Cl)c4)Oc4cc3cc(c4O[C@@H]3O[C@H](CO)[C@@H](O)[C@H](O)[C@H]3O[C@H]3C[C@](C)(N)[C@H](O)[C@H](C)O3)Oc3ccc(cc3Cl)[C@H]2O)c2ccc(O)c(c2)-c2c(O)cc(O)cc21 [MCC_005198] | xxxx (xxxx = 0.01-<0.1) | xxxx (xxxx = 0.01-<0.1) | xx (xx = 1-4)
4 | CN[C@H](CC(C)C)C(=O)N[C@H]1C(=O)N[C@@H](CC(N)=O)C(=O)N[C@H]2C(=O)N[C@H]3C(=O)N[C@H](C(=O)N[C@H](C(=O)NCCCC[C@H](NC(=O)[C@H](CCCCN)NC(=O)[C@H](CCCCN)NC(=O)CC4CCCCC4)C(=O)O)c4cc(O)cc(O)c4-c4cc3ccc4O)[C@H](O)c3ccc(c(Cl)c3)Oc3cc2cc(c3O[C@@H]2O[C@H](CO)[C@@H](O)[C@H](O)[C@H]2O[C@H]2C[C@](C)(N)[C@H](O)[C@H](C)O2)Oc2ccc(cc2Cl)[C@H]1O [MCC_005502] | xx (xx = 1-4) | xx (xx = 1-4) | x (x = >4)
5 | CNC(=O)[C@H](CCCCNC(=O)[C@H]1NC(=O)[C@H]2NC(=O)[C@H](NC(=O)[C@@H]3NC(=O)[C@H](CC(N)=O)NC(=O)[C@H](NC(=O)[C@@H](CC(C)C)NC)[C@H](O)c4ccc(c(Cl)c4)Oc4cc3cc(c4O[C@@H]3O[C@H](CO)[C@@H](O)[C@H](O)[C@H]3O[C@H]3C[C@](C)(N)[C@H](O)[C@H](C)O3)Oc3ccc(cc3Cl)[C@H]2O)c2ccc(O)c(c2)-c2c(O)cc(O)cc21)NC(=O)[C@H](CCCCN)NC(=O)[C@H](CCCCN)NS(=O)(=O)c1ccc(C)cc1 [MCC_000764] | xx (xx = 1-4) | xx (xx = 1-4) | x (x = >4)

From patent US10947271B2, “Antibacterial agents” (THE UNIVERSITY OF QUEENSLAND, priority 2014, dated 2021)
